Molecular target: T1, AC1 (Homo sapiens, UniProt Q08828)
T1 construct: expressed in transfected cells
Assay: Inhibition of A23187-mediated (Ca2+-stimulated) cAMP accumulation in HEK cells stably expressing AC1
Type: cell-based
Conditions: for inhibition at 4 µM / inhibition at 40 µM: HEK293, read-out: AC1 Inhibition Percentage; for inhibition at 4 µM: 4 μM compound; for inhibition at 40 µM: 40 μM compound; for IC50: HEK cells stably expressing AC1, inhibitors 30 min, then 3 μM A23187 with IBMX, average and S.E.M. of at least three independent experiments, read-out: IC50 for inhibition of the A23187-mediated cAMP response of AC1
Method: HEK cells stably expressing AC1 were treated with inhibitors for 30 min, and subsequently incubated with 3 μM A23187 in the presence of 2 mM IBMX. Data represent the average and S.E.M. of at least three independent experiments.
A23187 is a Ca2+ ionophore, which promotes Ca2+ binding to calmodulin in the cells and, subsequent stimulation of AC1.
HEK (human embryonic kidney) cells stably expressing human AC1, were cultured in Dubelcco's Modified Eagle Medium (Life Technologies, Grand Island, N.Y.) supplemented with 5% bovine calf serum (Hyclone, Logan, Utah), 5% fetal clone I (Hyclone, Logan, Utah), Antibiotic-Antimycotic (Life Technologies, Grand Island, N.Y.), and G418 (Invivogen, San Diego, Calif.). The cells were grown to confluency in 15 cm disses, harvested using Cell Dissociation Buffer (Life Technologies, Grand Island, N.Y.), and resuspended in 4 ml of fetal bovine serum (Hyclone, Logan, Utah) containing 10% dimethyl sulfoxide (Sigma-Aldrich, St. Louis, Mo.). 1 ml of cell suspension was added to cryovials that were incubated overnight at −80° C. in a CoolCell device (BioCision, Larkspur, Calif.) for cryopreservation. On the following day, cryovials were stored in liquid N2 until the assay day.
Cryopreserved HEK-AC1 cells were thawed in a 37° C. water-bath, resuspended in 10 ml optiMEM (Life Technologies, Grand Island, N.Y.) and centrifuged at 500×g for 5 min. The cells were resuspended in 10 ml optiMEM and the centrifugation step was repeated. Cells were then resuspended in 1 ml optiMEM and counted using a Countess automated cell counter (Life Technologies, Grand Island, N.Y.). Cells were added to a white, flat bottom, low-volume, tissue culture-treated 384 well plate (PerkinElmer, Shelton, Conn.) at a final density of 2500 cells/well. The plate was centrifuged for 1 min at 100×g and incubated in a 37° C. humidified incubator for 1 h. […] Following this incubation A23187 (Sigma-Aldrich, St. Louis, Mo.) (3 μM final concentration) containing 3-isobutyl-1-methylxanthine (Sigma-Aldrich, St. Louis, Mo.) (0.5 mM final concentration) was added. The plate was centrifuged for 1 min at 100×g and incubated at room temperature for 1 h. Cyclic AMP accumulation was measured using Cisbio's dynamic 2 kit (Cisbio Bioassays, Bedford, Mass.) according to the manufacturer's instructions. Plates were analyzed for fluorescent emissions at 620 nm and 665 nm using 330 nm as the excitation wavelength in a Cytation 3 Cell Imaging Multi-Mode Reader (Biotek, Winooski, Vt.), and ratiometric analysis was carried out by dividing the 665 nm emissions by the 620 nm emissions to extrapolate the cAMP concentrations from a cAMP standard curve. The data represent the average of at least three independent experiments ran in duplicate.

T1 sequence (Q08828 whole entry): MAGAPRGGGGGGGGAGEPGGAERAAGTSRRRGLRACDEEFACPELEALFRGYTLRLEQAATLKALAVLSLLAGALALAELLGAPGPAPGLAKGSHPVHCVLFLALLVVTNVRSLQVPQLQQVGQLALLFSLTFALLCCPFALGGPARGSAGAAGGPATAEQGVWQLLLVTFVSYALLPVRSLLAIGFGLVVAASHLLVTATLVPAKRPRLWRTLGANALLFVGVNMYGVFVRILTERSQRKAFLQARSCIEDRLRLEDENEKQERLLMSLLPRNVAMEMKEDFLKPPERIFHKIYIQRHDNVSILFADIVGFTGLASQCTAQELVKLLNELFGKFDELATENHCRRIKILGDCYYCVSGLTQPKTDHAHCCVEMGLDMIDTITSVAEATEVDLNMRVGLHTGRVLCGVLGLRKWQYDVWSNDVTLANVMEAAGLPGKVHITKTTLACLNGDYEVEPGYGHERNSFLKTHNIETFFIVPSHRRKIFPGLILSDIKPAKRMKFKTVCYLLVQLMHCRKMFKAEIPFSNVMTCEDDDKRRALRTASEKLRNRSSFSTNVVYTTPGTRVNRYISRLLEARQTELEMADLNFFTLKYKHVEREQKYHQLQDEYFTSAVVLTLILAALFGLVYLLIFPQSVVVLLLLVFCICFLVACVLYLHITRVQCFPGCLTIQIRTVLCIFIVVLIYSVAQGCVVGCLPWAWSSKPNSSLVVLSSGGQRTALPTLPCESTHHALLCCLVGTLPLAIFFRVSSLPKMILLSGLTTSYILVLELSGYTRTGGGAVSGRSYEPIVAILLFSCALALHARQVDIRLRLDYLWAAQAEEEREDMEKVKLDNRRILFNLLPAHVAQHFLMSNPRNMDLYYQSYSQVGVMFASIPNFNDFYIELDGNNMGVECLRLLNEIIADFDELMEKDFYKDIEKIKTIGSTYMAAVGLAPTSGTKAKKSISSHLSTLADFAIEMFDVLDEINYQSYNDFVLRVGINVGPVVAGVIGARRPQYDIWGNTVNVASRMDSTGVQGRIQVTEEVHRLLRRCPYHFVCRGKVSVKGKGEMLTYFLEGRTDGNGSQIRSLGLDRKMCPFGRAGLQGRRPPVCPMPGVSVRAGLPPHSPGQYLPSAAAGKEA

Structure (SMILES) | inhibition at 4 µM [%] | inhibition at 40 µM [%] | IC50 [µM]
CN(C/C=C/c1cccc([N+](=O)[O-])c1)Cc1cccc2ccccc12 [Compound 7fl, (E)-N-methyl-N-(naphthalen-1-ylmethyl)-3-(3-nitrophenyl)prop-2-en-1-amine] | -28 | 62 | 
Cc1ccc(/C=C/CN(CCc2c[nH]c3ccccc23)Cc2ccccc2)cc1 [Compound 7ab, (E)-N-(2-(1H-indol-3-yl)ethyl)-N-benzyl-3-p-tolylprop-2-en-1-amine] | 20 | 91 | 
C(=C\c1ccccc1)/CN(Cc1ccccc1)Cc1ccccc1 [Compound 7e, (E)-N,N-dibenzyl-3-phenylprop-2-en-1-amine] | -9 | 75 | 
Cn1cc(CCN(C/C=C/c2ccccc2)Cc2ccccc2)c2ccccc21 [Compound 7d, (E)-N-benzyl-N-(2-(1-methyl-1H-indol-3-yl)ethyl)-3-phenylprop-2-en-1-amine] | -8 | 101 | 
CN(C/C=C/c1ccc(Cl)cc1)Cc1cccc2ccccc12 [Compound 7ff, (E)-3-(4-chlorophenyl)-N-methyl-N-(naphthalen-1-ylmethyl)prop-2-en-1-amine] | 37 | 91 | 
Cc1ccc(S(=O)(=O)N2CCCN(C/C=C/c3ccc(Cl)cc3)CC2)cc1 [Compound 7hc, (E)-1-(3-(4-chlorophenyl)allyl)-4-tosyl-1,4-diazepane] | -5.5 | 85 | 
CN(C/C=C/c1ccc(Br)cc1)Cc1cccc2ccccc12 [Compound 7fg, (E)-3-(4-bromophenyl)-N-methyl-N-(naphthalen-1-ylmethyl)prop-2-en-1-amine] | -61 | 93 | 
COc1ccc2c(c1)C(c1ccccc1)CN(C/C=C/c1ccc(F)cc1)CC2 (stereo not drawn) [Compound 7jd, (E)-3-(3-(4-fluorophenyl)allyl)-8-methoxy-1-phenyl-2,3,4,5-tetrahydro-1H-benzo[d]azepine] | 49 | 91 | 14.8
CN(C/C=C/c1ccccc1)Cc1cccc2ccccc12 [Compound 1, (E)-N-methyl-N-(naphthalen-1-ylmethyl)-3-phenylprop-2-en-1-amine, reference compound] | 4 | 83 | 
Ic1ccc(/C=C/CN(CCc2c[nH]c3ccccc23)Cc2ccccc2)cc1 [Compound 7ad, (E)-N-(2-(1H-indol-3-yl)ethyl)-N-benzyl-3-(4-iodophenyl)prop-2-en-1-amine] | 59 | 93 | 10.2
Brc1ccc(/C=C/CN(CCc2c[nH]c3ccccc23)Cc2ccccc2)cc1 [Compound 7ag, (E)-N-(2-(1H-indol-3-yl)ethyl)-N-benzyl-3-(4-bromophenyl)prop-2-en-1-amine] | 57 | 96 | 6.91
Fc1ccc(C(c2ccc(F)cc2)N2CCN(C/C=C/c3ccccc3)CC2)cc1 [Compound 3, 1-(bis(4-fluorophenyl)methyl)-4-cinnamylpiperazine, reference compound] | 35 | 97 | 
COc1ccc2c(c1)C(c1ccc(Br)cc1)CN(C/C=C/c1ccc(C)cc1)CC2 (stereo not drawn) [Compound 7kb, (E)-1-(4-bromophenyl)-8-methoxy-3-(3-p-tolylallyl)-2,3,4,5-tetrahydro-1H-benzo[d]azepine] | 8 | 11 | 
O=[N+]([O-])c1ccc(CN(C/C=C/c2ccccc2)CCc2c[nH]c3ccccc23)cc1 [Compound 7bc, (E)-N-(2-(1H-indol-3-yl)ethyl)-N-(4-nitrobenzyl)-3-phenylprop-2-en-1-amine] | 29 | 88 | 
Cc1cccc(/C=C/CN(CCc2c[nH]c3ccccc23)Cc2ccccc2)c1 [Compound 7ac, (E)-N-(2-(1H-indol-3-yl)ethyl)-N-benzyl-3-m-tolylprop-2-en-1-amine] | 18 | 93 | 
